Measurements: PubChem BioAssay AID248 (DTP/NCI, 2004)
Several values for one entry are separate records, joined by “and”; a condition that tells them apart may be missing. Identical values can stand only once. Inconclusive results and toxic doses are left out.

Test system: L1210 leukemia ip in BDF1 mice, survival T/C
Assay: NCI In Vivo Anticancer Drug Screen. Data for tumor model L1210 Leukemia (intraperitoneal) in B6D2F1 (BDF1) mice
Conditions: endpoint: mean survival time, higher = longer survival
How it was run: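 Mice bearing the transplanted tumor received compound or vehicle. Survival of the treated group was divided by that of the vehicle-treated control group to give the ratio.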

[1] = dose: 100.0 mg/kg/injection, schedule: Q04DX003 (ip), vehicle: Klucel (hydroxypropylcellulose) (HPC)
[2] = dose: 200.0 mg/kg/injection, schedule: Q04DX003 (ip), vehicle: Klucel (hydroxypropylcellulose) (HPC)
[3] = dose: 400.0 mg/kg/injection, schedule: Q04DX003 (ip), vehicle: Klucel (hydroxypropylcellulose) (HPC)
[4] = dose: 100.0 mg/kg/injection, schedule: Q01DX009 (ip), vehicle: saline with Tween-80
[5] = dose: 200.0 mg/kg/injection, schedule: Q01DX009 (ip), vehicle: saline with Tween-80
[6] = dose: 100.0 mg/kg/injection, schedule: Q01DX009 (ip), vehicle: saline
[7] = dose: 400.0 mg/kg/injection, schedule: Q01DX009 (ip), vehicle: saline with Tween-80

CN(N=O)C(=O)NCCn1cnc2c(=S)nc[nH]c21
T/C (dose: 6.0 mg/kg/injection, schedule: Q01DX Z (ip), vehicle: carboxymethylcellulose (CMC)): 95 % of control | T/C (dose: 12.0 mg/kg/injection, schedule: Q01DX Z (ip), vehicle: carboxymethylcellulose (CMC)): 92 % of control | T/C (dose: 25.0 mg/kg/injection, schedule: Q01DX Z (ip), vehicle: carboxymethylcellulose (CMC)): 109 % of control | T/C (dose: 50.0 mg/kg/injection, schedule: Q01DX Z (ip), vehicle: carboxymethylcellulose (CMC)): 114 % of control | T/C (dose: 100.0 mg/kg/injection, schedule: Q01DX Z (ip), vehicle: carboxymethylcellulose (CMC)): 104 % of control | T/C (dose: 150.0 mg/kg/injection, schedule: Q01DX Z (ip), vehicle: carboxymethylcellulose (CMC)): 121 % of control

COC(=O)c1cc(SC)nc(SC)n1
T/C [1]: 90 % of control | T/C [2]: 111 % of control | T/C [3]: 101 % of control

O=C(CCl)Nc1ccc(Br)cc1
T/C [4]: 109 % of control | T/C [5]: 96 % of control

N#CCCSP(=S)(Oc1ccccc1)Oc1ccccc1
T/C (dose: 100.0 mg/kg/injection, schedule: Q01DX009 (ip), vehicle: other): 100 % of control | T/C (dose: 200.0 mg/kg/injection, schedule: Q01DX009 (ip), vehicle: other): 100 % of control | T/C (dose: 400.0 mg/kg/injection, schedule: Q01DX009 (ip), vehicle: other): 94 % of control

CCCCCCCCCCCCCCCCCCNC(=O)Nc1ccc(SC)cc1
T/C (dose: 100.0 mg/kg/injection, schedule: Q04DX002 (ip), vehicle: Klucel (hydroxypropylcellulose) (HPC)): 101 % of control | T/C (dose: 200.0 mg/kg/injection, schedule: Q04DX002 (ip), vehicle: Klucel (hydroxypropylcellulose) (HPC)): 96 % of control | T/C (dose: 400.0 mg/kg/injection, schedule: Q04DX002 (ip), vehicle: Klucel (hydroxypropylcellulose) (HPC)): 101 % of control

COc1ccc(C(SCC(N)C(=O)O)(c2ccccc2)c2ccccc2)cc1 (stereo not drawn)
T/C (dose: 7.4 mg/kg/injection, schedule: Q01DX009 (ip), vehicle: saline): 122 % of control | T/C (dose: 25.0 mg/kg/injection, schedule: Q01DX009 (ip), vehicle: saline): 166 % of control | T/C (dose: 50.0 mg/kg/injection, schedule: Q01DX009 (ip), vehicle: saline): 183 % of control | T/C [6]: 100 % of control

CCOC(=O)C1C2C=CC(N3C(=O)c4ccccc4C3=O)CC21 (stereo not drawn)
T/C (dose: 100.0 mg/kg/injection, schedule: Q01DX009 (ip), vehicle: gum acacia): 92 % of control | T/C (dose: 200.0 mg/kg/injection, schedule: Q01DX009 (ip), vehicle: gum acacia): 91 % of control | T/C (dose: 400.0 mg/kg/injection, schedule: Q01DX009 (ip), vehicle: gum acacia): 97 % of control

Fc1c(F)c(C(F)(F)F)c(F)c(F)c1P(c1c(F)c(F)c(C(F)(F)F)c(F)c1F)c1c(F)c(F)c(C(F)(F)F)c(F)c1F
T/C (dose: 75.0 mg/kg/injection, schedule: Q01DX009 (ip), vehicle: Klucel (hydroxypropylcellulose) (HPC)): 123 % of control | T/C [1]: 97 % of control | T/C (dose: 150.0 mg/kg/injection, schedule: Q01DX009 (ip), vehicle: Klucel (hydroxypropylcellulose) (HPC)): 96 % of control | T/C [2]: 100 % of control | T/C (dose: 300.0 mg/kg/injection, schedule: Q01DX009 (ip), vehicle: Klucel (hydroxypropylcellulose) (HPC)): 100 % of control | T/C [3]: 100 % of control

OC(Cc1cccc(/C=N/N2CCOCC2)n1)(C(F)(F)F)C(F)(F)F
T/C [4]: 91 % of control | T/C [5]: 98 % of control | T/C [7]: 89 % of control

CN(C)c1ccccc1C(=O)N/N=C\c1ccc(O)c(O)c1
T/C [4]: 87 % of control | T/C (dose: 100.0 mg/kg/injection, schedule: Q04DX002 (ip), vehicle: saline with Tween-80): 94 % of control | T/C [5]: 87 % of control | T/C (dose: 200.0 mg/kg/injection, schedule: Q04DX002 (ip), vehicle: saline with Tween-80): 94 % of control | T/C [7]: 90 % of control | T/C (dose: 400.0 mg/kg/injection, schedule: Q04DX002 (ip), vehicle: saline with Tween-80): 90 % of control

CC(=O)OC1CCP(C)(=O)C1 (stereo not drawn)
T/C (dose: 100.0 mg/kg/injection, schedule: Q04DX003 (ip), vehicle: saline): 98 % of control | T/C (dose: 200.0 mg/kg/injection, schedule: Q04DX003 (ip), vehicle: saline): 96 % of control | T/C (dose: 400.0 mg/kg/injection, schedule: Q04DX003 (ip), vehicle: saline): 93 % of control

O=[N+]([O-])c1cc(Cl)ccc1N1CCCCC1
T/C [4]: 97 % of control | T/C [5]: 98 % of control | T/C [7]: 106 % of control

Cc1cc(=O)n(-c2ccccc2)n1C.[Cl-].[Cl-].[Cl-].[Cl-].[Pt+2]
T/C (dose: 100.0 mg/kg/injection, schedule: Q04DX003 (ip), vehicle: saline with Tween-80): 97 % of control | T/C (dose: 200.0 mg/kg/injection, schedule: Q04DX003 (ip), vehicle: saline with Tween-80): 103 % of control | T/C (dose: 400.0 mg/kg/injection, schedule: Q04DX003 (ip), vehicle: saline with Tween-80): 105 % of control

CCCCCC(=O)N(CCCC)CCCC
T/C (dose: 100.0 mg/kg/injection, schedule: Q01DX001 (ip), vehicle: carboxymethylcellulose (CMC)): 103 % of control | T/C (dose: 100.0 mg/kg/injection, schedule: Q01DX009 (ip), vehicle: carboxymethylcellulose (CMC)): 97 % of control and 98 % of control | T/C (dose: 100.0 mg/kg/injection, schedule: Q04DX002 (ip), vehicle: carboxymethylcellulose (CMC)): 102 % of control and 103 % of control | T/C (dose: 100.0 mg/kg/injection, schedule: Q04DX003 (ip), vehicle: carboxymethylcellulose (CMC)): 98 % of control | T/C (dose: 200.0 mg/kg/injection, schedule: Q01DX001 (ip), vehicle: carboxymethylcellulose (CMC)): 110 % of control | T/C (dose: 200.0 mg/kg/injection, schedule: Q01DX009 (ip), vehicle: carboxymethylcellulose (CMC)): 94 % of control and 103 % of control | T/C (dose: 200.0 mg/kg/injection, schedule: Q04DX002 (ip), vehicle: carboxymethylcellulose (CMC)): 97 % of control and 105 % of control | T/C (dose: 200.0 mg/kg/injection, schedule: Q04DX003 (ip), vehicle: carboxymethylcellulose (CMC)): 97 % of control | T/C (dose: 400.0 mg/kg/injection, schedule: Q01DX001 (ip), vehicle: carboxymethylcellulose (CMC)): 106 % of control | T/C (dose: 400.0 mg/kg/injection, schedule: Q01DX009 (ip), vehicle: carboxymethylcellulose (CMC)): 98 % of control | T/C (dose: 400.0 mg/kg/injection, schedule: Q04DX002 (ip), vehicle: carboxymethylcellulose (CMC)): 97 % of control and 109 % of control | T/C (dose: 400.0 mg/kg/injection, schedule: Q04DX003 (ip), vehicle: carboxymethylcellulose (CMC)): 97 % of control

CC(=O)Nc1cc(C/C(N)=N/O)cc(NC(C)=O)c1
T/C [4]: 97 % of control | T/C [5]: 92 % of control | T/C [7]: 100 % of control

CC(=O)OC1COC(NC(=O)NNc2ccccc2)C(OC(C)=O)C1OC(C)=O (stereo not drawn)
T/C [6]: 88 % of control | T/C (dose: 100.0 mg/kg/injection, schedule: Q04DX003 (ip), vehicle: water): 94 % of control | T/C (dose: 200.0 mg/kg/injection, schedule: Q01DX009 (ip), vehicle: saline): 92 % of control | T/C (dose: 200.0 mg/kg/injection, schedule: Q04DX003 (ip), vehicle: water): 97 % of control | T/C (dose: 400.0 mg/kg/injection, schedule: Q04DX003 (ip), vehicle: water): 96 % of control

CSc1ccc(NC(=O)c2cccc([N+](=O)[O-])c2C(=O)O)cc1
T/C (dose: 100.0 mg/kg/injection, schedule: Q04DX002 (ip), vehicle: saline): 106 % of control | T/C (dose: 200.0 mg/kg/injection, schedule: Q04DX002 (ip), vehicle: saline): 110 % of control | T/C (dose: 400.0 mg/kg/injection, schedule: Q04DX002 (ip), vehicle: saline): 106 % of control

O=C(CCc1ccccc1)Nc1ccccc1
T/C (dose: 50.0 mg/kg/injection, schedule: Q01DX001 (ip), vehicle: saline): 96 % of control | T/C (dose: 100.0 mg/kg/injection, schedule: Q01DX001 (ip), vehicle: saline): 106 % of control | T/C [1]: 97 % of control | T/C (dose: 200.0 mg/kg/injection, schedule: Q01DX001 (ip), vehicle: saline): 101 % of control | T/C [2]: 102 % of control | T/C (dose: 400.0 mg/kg/injection, schedule: Q01DX001 (ip), vehicle: saline): 102 % of control | T/C [3]: 89 % of control
